Measured values published in ChEMBL document CHEMBL1201862, “PubChem BioAssay data set” (2004).
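Cultured in 96-well plates, cells were exposed to test compound for 48 hours across five concentrations. Here, GI50 denotes the concentration required for 50% inhibition of growth.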 Calls of active or inactive are those of the source. Rule as the data show it: active = GI50 up to about 1.1 µM and inactive = higher.

Key:
Assay in all cases: NCI-60 cell line screen, 48 h
K562 = system: K562
NCI-H460 = system: NCI-H460
HCT-116 = system: HCT-116
PC-3 = system: PC-3
NCI-H23 = system: NCI-H23
UACC-257 = system: UACC-257
SK-OV-3 = system: SK-OV-3
TK-10 = system: TK-10
T47D = system: T47D
RPMI-8226 = system: RPMI-8226
Malme-3M = system: Malme-3M
U-251 = system: U-251
A498 = system: A498
OVCAR-3 = system: OVCAR-3
SF-268 = system: SF-268
RXF 393 = system: RXF 393
UO-31 = system: UO-31
786-0 = system: 786-0
HCT-15 = system: HCT-15
CCRF-CEM = system: CCRF-CEM
OVCAR-8 = system: OVCAR-8
OVCAR-4 = system: OVCAR-4
DU-145 = system: DU-145
CAKI-1 = system: CAKI-1
M14 = system: M14
COLO 205 = system: COLO 205
SF-295 = system: SF-295
NCI-H226 = system: NCI-H226
SNB-19 = system: SNB-19
SK-MEL-5 = system: SK-MEL-5
HOP-92 = system: HOP-92
HOP-62 = system: HOP-62
HCC 2998 = system: HCC 2998
LOX IMVI = system: LOX IMVI
ACHN = system: ACHN
SNB-75 = system: SNB-75
SW-620 = system: SW-620
MOLT-4 = system: MOLT-4
NCI-H522 = system: NCI-H522
UACC-62 = system: UACC-62
A549 = system: A549
BT-549 = system: BT-549
IGROV-1 = system: IGROV-1
EKVX = system: EKVX
OVCAR-5 = system: OVCAR-5
MDA-N = system: MDA-N
SK-MEL-2 = system: SK-MEL-2
MDA-MB-435 = system: MDA-MB-435
MDA-MB-231 = system: MDA-MB-231
MCF7 = system: MCF7
Hs-578T = system: Hs-578T
KM12 = system: KM12
SR = system: SR
HT-29 = system: HT-29
NCI/ADR-RES = system: NCI/ADR-RES
SK-MEL-28 = system: SK-MEL-28
SN12C = system: SN12C
SF-539 = system: SF-539
HL-60 = system: HL-60

## COc1cc2c(cc1OCCN1C(=O)c3cccc4cccc(c34)C1=O)N=C[C@@H]1CCCN1C2=O
K562
  GI50: 1.15 µM (inactive)
NCI-H460
  GI50: 5.89 µM (inactive)
HCT-116
  GI50: 7.66 µM (inactive)
PC-3
  GI50: 7.08 µM (inactive)
NCI-H23
  GI50: 10.4 µM (inactive)
UACC-257
  GI50: 9.44 µM (inactive)
SK-OV-3
  GI50: 24.3 µM (inactive)
TK-10
  GI50: 8.05 µM (inactive)
T47D
  GI50: 9.35 µM (inactive)
RPMI-8226
  GI50: 9.27 µM (inactive)
Malme-3M
  GI50: 8.02 µM (inactive)
U-251
  GI50: 6.15 µM (inactive)
A498
  GI50: 9.04 µM (inactive)
OVCAR-3
  GI50: 6.68 µM (inactive)
SF-268
  GI50: 7.74 µM (inactive)
RXF 393
  GI50: 7.8 µM (inactive)
UO-31
  GI50: 8.87 µM (inactive)
786-0
  GI50: 7.96 µM (inactive)
HCT-15
  GI50: 9.31 µM
CCRF-CEM
  GI50: 0.236 µM (active)
OVCAR-8
  GI50: 8.57 µM (inactive)
OVCAR-4
  GI50: 16 µM (inactive)
DU-145
  GI50: 8.89 µM (inactive)
CAKI-1
  GI50: 7.5 µM (inactive)
M14
  GI50: 8.34 µM (inactive)
COLO 205
  GI50: 8.32 µM (inactive)
SF-295
  GI50: 13.7 µM (inactive)
NCI-H226
  GI50: 7.26 µM (inactive)
SNB-19
  GI50: 12.4 µM (inactive)
SK-MEL-5
  GI50: 8.61 µM (inactive)
HOP-92
  GI50: 7.76 µM (inactive)
HOP-62
  GI50: 21.5 µM (inactive)
HCC 2998
  GI50: 7.74 µM (inactive)
LOX IMVI
  GI50: 6.04 µM (inactive)
ACHN
  GI50: 8.07 µM (inactive)
SNB-75
  GI50: 13.3 µM (inactive)
SW-620
  GI50: 7.66 µM (inactive)
MOLT-4
  GI50: 1.01 µM (active)
NCI-H522
  GI50: 1.17 µM (inactive)
UACC-62
  GI50: 7.93 µM (inactive)
A549
  GI50: 8.65 µM (inactive)
BT-549
  GI50: 9.82 µM (inactive)
IGROV-1
  GI50: 3.11 µM (inactive)
EKVX
  GI50: 9.68 µM (inactive)
OVCAR-5
  GI50: 10.9 µM (inactive)
MDA-N
  GI50: 8.02 µM (inactive)
SK-MEL-2
  GI50: 7.29 µM (inactive)
MDA-MB-435
  GI50: 10.7 µM (inactive)
MDA-MB-231
  GI50: 7.41 µM (inactive)
MCF7
  GI50: 6.59 µM (inactive)
Hs-578T
  GI50: 7.8 µM (inactive)
KM12
  GI50: 14.3 µM (inactive)
SR
  GI50: > 100 µM (inactive)
HT-29
  GI50: 9.46 µM (inactive)
NCI/ADR-RES
  GI50: 15.8 µM (inactive)
SK-MEL-28
  GI50: 8.95 µM (inactive)
SN12C
  GI50: 7.93 µM (inactive)
SF-539
  GI50: 9.12 µM (inactive)

## CC(=O)OCC1CCC(=C2C(=O)OC(C)(C)OC2=O)N1 (centres undefined)
K562
  GI50: > 100 µM (inactive)
NCI-H460
  GI50: > 100 µM (inactive)
HCT-116
  GI50: > 100 µM (inactive)
PC-3
  GI50: > 100 µM (inactive)
NCI-H23
  GI50: > 100 µM (inactive)
UACC-257
  GI50: > 100 µM (inactive)
SK-OV-3
  GI50: > 100 µM (inactive)
TK-10
  GI50: > 100 µM (inactive)
T47D
  GI50: > 100 µM (inactive)
RPMI-8226
  GI50: > 100 µM (inactive)
Malme-3M
  GI50: > 100 µM (inactive)
U-251
  GI50: > 100 µM (inactive)
OVCAR-3
  GI50: > 100 µM (inactive)
SF-268
  GI50: > 100 µM (inactive)
RXF 393
  GI50: > 100 µM (inactive)
UO-31
  GI50: > 100 µM (inactive)
786-0
  GI50: > 100 µM (inactive)
HCT-15
  GI50: > 100 µM
CCRF-CEM
  GI50: > 100 µM (inactive)
OVCAR-8
  GI50: > 100 µM (inactive)
OVCAR-4
  GI50: > 100 µM (inactive)
DU-145
  GI50: > 100 µM (inactive)
CAKI-1
  GI50: > 100 µM (inactive)
M14
  GI50: > 100 µM (inactive)
COLO 205
  GI50: > 100 µM (inactive)
SF-295
  GI50: > 100 µM (inactive)
NCI-H226
  GI50: > 100 µM (inactive)
SNB-19
  GI50: > 100 µM (inactive)
SK-MEL-5
  GI50: > 100 µM (inactive)
HOP-92
  GI50: > 100 µM (inactive)
HOP-62
  GI50: > 100 µM (inactive)
HCC 2998
  GI50: > 100 µM (inactive)
LOX IMVI
  GI50: > 100 µM (inactive)
SNB-75
  GI50: > 100 µM (inactive)
SW-620
  GI50: > 100 µM (inactive)
MOLT-4
  GI50: > 100 µM (inactive)
NCI-H522
  GI50: > 100 µM (inactive)
UACC-62
  GI50: > 100 µM (inactive)
A549
  GI50: > 100 µM (inactive)
BT-549
  GI50: > 100 µM (inactive)
IGROV-1
  GI50: > 100 µM (inactive)
EKVX
  GI50: > 100 µM (inactive)
MDA-N
  GI50: > 100 µM (inactive)
SK-MEL-2
  GI50: > 100 µM (inactive)
MDA-MB-435
  GI50: > 100 µM (inactive)
MDA-MB-231
  GI50: > 100 µM (inactive)
MCF7
  GI50: > 100 µM (inactive)
HL-60
  GI50: > 100 µM (inactive)
Hs-578T
  GI50: > 100 µM (inactive)
KM12
  GI50: > 100 µM (inactive)
SR
  GI50: > 100 µM (inactive)
HT-29
  GI50: > 100 µM (inactive)
NCI/ADR-RES
  GI50: > 100 µM (inactive)
SK-MEL-28
  GI50: > 100 µM (inactive)
SN12C
  GI50: > 100 µM (inactive)
SF-539
  GI50: > 100 µM (inactive)
